From US20260001847A1, “HERBICIDAL QUINOLONE DERIVATIVES” (SYNGENTA CROP PROTECTION AG, priority 2022, published 2026)

Key:
Format in all cases: in vivo
Details in all cases: 1000 g/ha, evaluated after 13 days
[1] = test system: Amaranthus retoflexus (AMARE); test: Pre-emergence Test
Zea mays (ZEAMX) [2] = test: Post-emergence Test
Experimental: (§1) Seeds of a variety of test species are sown in standard soil in pots (Abutilon theophrasti (ABUTH), Ipomoea hederacea (IPOHE). Setaria faberi (SETFA), Echinochloa crus-galli (ECHCG), Zea mays (ZEAMX), Amaranthus retoflexus (AMARE), Solanum nigrum (SOLNI), Lolium perenne (LOLPE), Amaranthus palmeri (AMAPA)). After 8 days cultivation under controlled conditions in a glasshouse (at 24° C./16° C., day/night-; 14 hours light; 65% humidity), the plants are sprayed with an aqueous spray solution derived from the formulation of the technical active ingredient in acetone/water (50:50) solution containing 0.5% Tween 20 (polyoxyethylene sorbitan monolaurate, CAS RN 9005-64-5). Compounds are applied at 1000 g/ha unless otherwise stated. The test plants are then grown in a glasshouse under controlled conditions in a glasshouse (at 24° C./16° C., day/night; 14 hours light; 65% humidity) and watered twice daily. After 13 days the test is evaluated for the percentage damage caused to the plant. The biological activities are shown in the following table on a five-point scale (5=81-100%; 4=61-80%; 3=41-60%; 2=21-40%; 1=0-20%; -=not tested).

[3] = test system: Echinochloa crus-galli (ECHCG); test: Post-emergence Test
Experimental: as §1

Lolium perenne (LOLPE) [4] = test: Post-emergence Test
Experimental: as §1

Setaria faberi (SETFA) [5] = test: Post-emergence Test
Experimental: as §1

[6] = test system: Ipomoea hederacea (IPOHE); test: Post-emergence Test
Experimental: as §1

[7] = test system: Amaranthus retoflexus (AMARE); test: Post-emergence Test
Experimental: as §1

[8] = test system: Abutilon theophrasti (ABUTH); test: Post-emergence Test
Experimental: as §1

Solanum nigrum (SOLNI) [9] = test: Post-emergence Test
Experimental: as §1

[10] = test system: Echinochloa crus-galli (ECHCG); test: Pre-emergence Test
[11] = test system: Abutilon theophrasti (ABUTH); test: Pre-emergence Test
Lolium perenne (LOLPE) [12] = test: Pre-emergence Test
Setaria faberi (SETFA) [13] = test: Pre-emergence Test
[14] = test system: Ipomoea hederacea (IPOHE); test: Pre-emergence Test
Solanum nigrum (SOLNI) [15] = test: Pre-emergence Test
Zea mays (ZEAMX) [16] = test: Pre-emergence Test
[17] = test system: Amaranthus palmeri (AMAPA); test: Post-emergence Test
Experimental: as §1

[18] = test system: Amaranthus palmeri (AMAPA); test: Pre-emergence Test

Row | SMILES | percentage damage caused to the plant, AMARE [1] | percentage damage caused to the plant, ZEAMX (Zea mays (ZEAMX) [2]) | percentage damage caused to the plant, ECHCG [3] | percentage damage caused to the plant, LOLPE (Lolium perenne (LOLPE) [4]) | percentage damage caused to the plant, SETFA (Setaria faberi (SETFA) [5]) | percentage damage caused to the plant, IPOHE [6] | percentage damage caused to the plant, AMARE [7] | percentage damage caused to the plant, ABUTH [8] | percentage damage caused to the plant, SOLNI (Solanum nigrum (SOLNI) [9]) | percentage damage caused to the plant, ECHCG [10] | percentage damage caused to the plant, ABUTH [11] | percentage damage caused to the plant, LOLPE (Lolium perenne (LOLPE) [12]) | percentage damage caused to the plant, SETFA (Setaria faberi (SETFA) [13]) | percentage damage caused to the plant, IPOHE [14] | percentage damage caused to the plant, SOLNI (Solanum nigrum (SOLNI) [15]) | percentage damage caused to the plant, ZEAMX (Zea mays (ZEAMX) [16]) | percentage damage caused to the plant, AMAPA [17] | percentage damage caused to the plant, AMAPA [18]
1 | CCn1c(-c2ccc(Cl)c(Cl)c2)c(C(=O)O)c(=O)c2ccccc21 [Compound 3, 2-(3,4-dichlorophenyl)-1-ethyl-4-oxo-quinoline-3-carboxylic acid] | 2 (2=21-40%) | 1 (1=0-20%) | 3 (3=41-60%) | 2 (2=21-40%) | 4 (4=61-80%) | 4 (4=61-80%) | 3 (3=41-60%) | 2 (2=21-40%) | 4 (4=61-80%) | 5 (5=81-100%) | 1 (1=0-20%) | 3 (3=41-60%) | 5 (5=81-100%) | 3 (3=41-60%) | 4 (4=61-80%) | 3 (3=41-60%) | – | –
2 | CCn1c(-c2ccc(Cl)c(Cl)c2)c(C(=O)O)c(=O)c2c(Br)cccc21 [Compound 4, 5-bromo-2-(3,4-dichlorophenyl)-1-ethyl-4-oxo-quinoline-3-carboxylic acid] | 1 (1=0-20%) | 1 (1=0-20%) | 1 (1=0-20%) | – | 1 (1=0-20%) | 1 (1=0-20%) | 0 | – | – | 5 (5=81-100%) | – | – | 5 (5=81-100%) | 1 (1=0-20%) | – | 3 (3=41-60%) | 0 | 2 (2=21-40%)
3 | CCn1c(-c2ccc(Cl)c(Cl)c2)c(C(=O)O)c(=O)c2cc(OC)ccc21 [Compound 15, 2-(3,4-dichlorophenyl)-1-ethyl-6-methoxy-4-oxo-quinoline-3-carboxylic acid] | 3 (3=41-60%) | 1 (1=0-20%) | 3 (3=41-60%) | – | 2 (2=21-40%) | 2 (2=21-40%) | 2 (2=21-40%) | – | – | 4 (4=61-80%) | – | – | 5 (5=81-100%) | 2 (2=21-40%) | – | 1 (1=0-20%) | 2 (2=21-40%) | 3 (3=41-60%)
4 | CCn1c(-c2ccc(Cl)c(Cl)c2)c(C(=O)O)c(=O)c2cc(SC)ccc21 [Compound 11, 2-(3,4-dichlorophenyl)-1-ethyl-6-methylsulfanyl-4-oxo-quinoline-3-carboxylic acid] | 1 (1=0-20%) | 2 (2=21-40%) | 4 (4=61-80%) | – | 3 (3=41-60%) | 1 (1=0-20%) | 2 (2=21-40%) | – | – | 5 (5=81-100%) | – | – | 5 (5=81-100%) | 1 (1=0-20%) | – | 2 (2=21-40%) | 3 (3=41-60%) | 3 (3=41-60%)
5 | CCn1c(-c2ccc(Cl)c(Cl)c2)c(C(=O)O)c(=O)c2ccc(OC)cc21 [Compound 1, 2-(3,4-dichlorophenyl)-1-ethyl-7-methoxy-4-oxo-quinoline-3-carboxylic acid] | – | 0 | 1 (1=0-20%) | – | 2 (2=21-40%) | 3 (3=41-60%) | 0 | – | – | 1 (1=0-20%) | 3 (3=41-60%) | – | 2 (2=21-40%) | 2 (2=21-40%) | – | 1 (1=0-20%) | – | –
6 | CCn1c(-c2ccc(Cl)c(Cl)c2)c(C(=O)O)c(=O)c2cc(S(C)(=O)=O)ccc21 [Compound 12, 2-(3,4-dichlorophenyl)-1-ethyl-6-methylsulfonyl-4-oxo-quinoline-3-carboxylic acid] | 3 (3=41-60%) | 1 (1=0-20%) | 4 (4=61-80%) | – | 3 (3=41-60%) | 2 (2=21-40%) | 3 (3=41-60%) | – | – | 5 (5=81-100%) | – | – | 5 (5=81-100%) | 1 (1=0-20%) | – | 1 (1=0-20%) | 2 (2=21-40%) | 3 (3=41-60%)
7 | CCn1c(-c2ccc(F)cc2)c(C(=O)O)c(=O)c2ccccc21 [Compound 18, 1-ethyl-2-(4-fluorophenyl)-4-oxo-quinoline-3-carboxylic acid] | 1 (1=0-20%) | 1 (1=0-20%) | 1 (1=0-20%) | – | 1 (1=0-20%) | 0 | 1 (1=0-20%) | – | – | 2 (2=21-40%) | – | – | 3 (3=41-60%) | 0 | – | 0 | 1 (1=0-20%) | 1 (1=0-20%)
8 | CCn1c(-c2ccc(Cl)c(Cl)c2)c(C(=O)O)c(=O)c2c(C(F)(F)F)cccc21 [Compound 2, 2-(3,4-dichlorophenyl)-1-ethyl-4-oxo-5-(trifluoromethyl)quinoline-3-carboxylic acid] | 2 (2=21-40%) | 3 (3=41-60%) | 5 (5=81-100%) | 1 (1=0-20%) | 4 (4=61-80%) | 3 (3=41-60%) | 2 (2=21-40%) | 3 (3=41-60%) | 2 (2=21-40%) | 5 (5=81-100%) | 2 (2=21-40%) | 0 | 5 (5=81-100%) | 2 (2=21-40%) | 2 (2=21-40%) | 1 (1=0-20%) | – | –
